Several values for one entry are separate records, joined by “and”; a condition that tells them apart may be missing. Equal entries are not always repeated. Where a SMILES comes first, the peptide text is derived from it. [ ]: non-standard residue; d: D form. Hyp = O=C(O)[C@@H]1C[C@@H](O)CN1
Columns and labels:
IL-1 beta/IL-1F2 = assay: Example 8 main study Luminex, LPS hPBMCs: IL-1 beta/IL-1F2; type: cell-based, human
Procedure: (§1) Human PBMCs were pretreated with YY-101, YDE-011, YDE-043 or reference compound; Xiidra® at various concentration (ranging from […] to 500 nM) for 2 h before stimulation. An equal volume of 0.5% DMSO was used as a vehicle control. Then, the cells were treated with LPS at 5 ug/ml, which was selected based on the pilot study. The supernatants from treated cells were harvested at 24 h and placed in a 96 well for Luminex cytokine & chemokine profiling using a Luminex 200 multiplex assay (Luminex; R&D system, USA).
(§2) The main study arm with triplicate wells per group in a 24-well plate: • 1. Blank • 2. PBMC: 0.5% DMSO • 3. PBMC+LPS (5 ug/ml) • 4. PBMC+YY-101 500 nM • 5. PBMC+YY-101 50 nM • 6. PBMC+YY-101 5 nM • 7. PBMC+YY-101 0.5 nM • 8. PBMC+LPS (5 ug/ml)+Xiidra® 500 nM • 9. PBMC+LPS (5 ug/ml)+Xiidra® 50 nM • 10. PBMC+LPS (5 ug/ml)+Xiidra® 5 nM • 11. PBMC+LPS (5 ug/ml)+Xiidra® 0.5 nM • 12. PBMC+LPS (5 ug/ml)+Xiidra® 0.05 nM • 13. PBMC+LPS (5 ug/ml)+Xiidra® 0.005 nM • 14. PBMC+LPS (5 ug/ml)+YY-101 500 nM • 15. PBMC+LPS (5 ug/ml)+YY-101 50 nM • 16. PBMC+LPS (5 ug/ml)+YY-101 5 nM • 17. PBMC+LPS (5 ug/ml)+YY-101 0.5 nM • 18. PBMC+LPS (5 ug/ml)+YY-101 0.05 nM • 19. PBMC+LPS (5 ug/ml)+YY-101 0.005 nM • 20. PBMC+LPS (5 ug/ml)+YDE-011 500 nM • 21. PBMC+LPS (5 ug/ml)+YDE-011 50 nM • 22. PBMC+LPS (5 ug/ml)+YDE-011 5 nM • 23. PBMC+LPS (5 ug/ml)+YDE-011 0.5 nM • 24. PBMC+LPS (5 ug/ml)+YDE-011 0.05 nM • 25. PBMC+LPS (5 ug/ml)+YDE-011 0.005 nM • 26. PBMC+LPS (5 ug/ml)+YDE-043 500 nM • 27. PBMC+LPS (5 ug/ml)+YDE-043 50 nM • 28. PBMC+LPS (5 ug/ml)+YDE-043 5 nM • 29. PBMC+LPS (5 ug/ml)+YDE-043 0.5 nM • 30. PBMC+LPS (5 ug/ml)+YDE-043 0.05 nM • 31. PBMC+LPS (5 ug/ml)+YDE-043 0.005 nM
(§3) Multiplex assay was used to measure 30 cytokines and chemokines. The 1:200 diluted cell supernatant and serial dilution of the standard were dispensed into a 96 well plate at 50 ul/well. Then, the pre-mixed cocktail of antibody-coated magnetic beads was dispensed at 50 ul/well and incubated at room temperature for 2 h in a horizontal orbital microplate shaker at 800±500 rpm. The beads were washed using a magnetic device to prevent loss. The biotin-antibody was dispensed in 50 ul of each well and incubated at room temperature for 1 h in a shaker at 800±500 rpm. After washing, streptavidin-PE was added at 50 ul/well and incubated at room temperature for 30 min in a shaker under the same conditions. Finally, after washing, wash buffer (100 ul/well) was added to the plate and incubated in a shaker for 2 min. The Luminex™ 200 setting were set according to the manufacturer's protocol. The data was calculated with a standard five-parameter logistic nonlinear regression analysis of the data (xPonent software 4.2, USA). Results were presented as concentration (ng/ml or pg/ml).

CCL2/MCP-1 = assay: Example 8 main study Luminex, LPS hPBMCs: CCL2/MCP-1; type: cell-based, human; conditions: for CCL2/MCP-1 Concentration: single replicates
Procedure: as §1, §2, §3

[1] = PBMC + LPS(5 ug/ml) + test article 0.005 nM, Mean
[2] = PBMC + LPS(5 ug/ml) + test article 0.005 nM, individual replicates
[3] = PBMC + LPS(5 ug/ml) + test article 0.05 nM, Mean
[4] = PBMC + LPS(5 ug/ml) + test article 0.05 nM, individual replicates
[5] = PBMC + LPS(5 ug/ml) + test article 0.5 nM, Mean
[6] = PBMC + LPS(5 ug/ml) + test article 0.5 nM, individual replicates
[7] = PBMC + LPS(5 ug/ml) + test article 5 nM, Mean
[8] = PBMC + LPS(5 ug/ml) + test article 5 nM, individual replicates
[9] = PBMC + LPS(5 ug/ml) + test article 50 nM, Mean
[10] = PBMC + LPS(5 ug/ml) + test article 50 nM, individual replicates
[11] = PBMC + LPS(5 ug/ml) + test article 500 nM, Mean
[12] = PBMC + LPS(5 ug/ml) + test article 500 nM, individual replicates
[13] = PBMC + LPS(5 ug/ml) + YDE043 0.005 nM
[14] = PBMC + LPS(5 ug/ml) + YDE043 0.05 nM
[15] = PBMC + LPS(5 ug/ml) + YDE043 0.5 nM
[16] = PBMC + LPS(5 ug/ml) + YDE043 5 nM
[17] = PBMC + LPS(5 ug/ml) + YDE043 50 nM
[18] = PBMC + LPS(5 ug/ml) + YDE043 500 nM

Compound: CC(C)C[C@H](NC(=O)[C@H](CCC(N)=O)NC(=O)CNC(=O)[C@@H]1C[C@@H](O)CN1)C(=O)NCC(=O)O [YDE-043] (H-[Hyp]GQLG-OH; N-terminus and C-terminus assumed)
- LPS-induced IL-1b levels (in words) (IL-1 beta/IL-1F2; LPS 5 ug/mL 24 hrs): significantly lowered
- IL-1 beta/IL-1F2 Concentration (IL-1 beta/IL-1F2; [1]): 5499.4 pg/mL
- IL-1 beta/IL-1F2 MFI (IL-1 beta/IL-1F2; [1]): 100.0
- IL-1 beta/IL-1F2 Concentration (IL-1 beta/IL-1F2; [2]): 4547.7 pg/mL and 5320.3 pg/mL and 6630.3 pg/mL
- IL-1 beta/IL-1F2 MFI (IL-1 beta/IL-1F2; [2]): 84.0 and 97.0 and 119.0
- IL-1 beta/IL-1F2 Concentration (IL-1 beta/IL-1F2; [3]): 4458.6 pg/mL
- IL-1 beta/IL-1F2 MFI (IL-1 beta/IL-1F2; [3]): 82.5
- IL-1 beta/IL-1F2 Concentration (IL-1 beta/IL-1F2; [4]): 4488.3 pg/mL and 4428.9 pg/mL and 4458.6 pg/mL
- IL-1 beta/IL-1F2 MFI (IL-1 beta/IL-1F2; [4]): 83.0 and 82.0 and 82.5
- IL-1 beta/IL-1F2 Concentration (IL-1 beta/IL-1F2; [5]): 4725.9 pg/mL
- IL-1 beta/IL-1F2 MFI (IL-1 beta/IL-1F2; [5]): 87.0
- IL-1 beta/IL-1F2 Concentration (IL-1 beta/IL-1F2; [6]): 4963.6 pg/mL and 4785.3 pg/mL and 4428.9 pg/mL
- IL-1 beta/IL-1F2 MFI (IL-1 beta/IL-1F2; [6]): 91.0 and 88.0 and 82.0
- IL-1 beta/IL-1F2 Concentration (IL-1 beta/IL-1F2; [7]): 5379.8 pg/mL
- IL-1 beta/IL-1F2 MFI (IL-1 beta/IL-1F2; [7]): 98.0
- IL-1 beta/IL-1F2 Concentration (IL-1 beta/IL-1F2; [8]): 5379.8 pg/mL and 5558.3 pg/mL and 5201.4 pg/mL
- IL-1 beta/IL-1F2 MFI (IL-1 beta/IL-1F2; [8]): 98.0 and 101.0 and 95.0
- IL-1 beta/IL-1F2 Concentration (IL-1 beta/IL-1F2; [9]): 5280.8 pg/mL
- IL-1 beta/IL-1F2 MFI (IL-1 beta/IL-1F2; [9]): 96.3
- IL-1 beta/IL-1F2 Concentration (IL-1 beta/IL-1F2; [10]): 5588.1 pg/mL and 5469.1 pg/mL and 4785.3 pg/mL
- IL-1 beta/IL-1F2 MFI (IL-1 beta/IL-1F2; [10]): 101.5 and 99.5 and 88.0
- IL-1 beta/IL-1F2 Concentration (IL-1 beta/IL-1F2; [11]): 4508.2 pg/mL
- IL-1 beta/IL-1F2 MFI (IL-1 beta/IL-1F2; [11]): 83.3
- IL-1 beta/IL-1F2 Concentration (IL-1 beta/IL-1F2; [12]): 4428.9 pg/mL and 4191.5 pg/mL and 4904.1 pg/mL
- IL-1 beta/IL-1F2 MFI (IL-1 beta/IL-1F2; [12]): 82.0 and 78.0 and 90.0
- CCL2/MCP-1 Concentration, Mean (CCL2/MCP-1; [13]): 4629.2 pg/mL
- CCL2/MCP-1 Concentration (CCL2/MCP-1; [13]): 4425.5 pg/ml and 4731.0 pg/ml (2×)
- CCL2/MCP-1 Concentration, Mean (CCL2/MCP-1; [14]): 4545.3 pg/mL
- CCL2/MCP-1 Concentration (CCL2/MCP-1; [14]): 4528.4 pg/mL and 4477.1 pg/mL and 4630.2 pg/mL
- CCL2/MCP-1 Concentration, Mean (CCL2/MCP-1; [15]): 4390.9 pg/mL
- CCL2/MCP-1 Concentration (CCL2/MCP-1; [15]): 4425.5 pg/ml (2×) and 4321.5 pg/ml
- CCL2/MCP-1 Concentration, Mean (CCL2/MCP-1; [16]): 4562.3 pg/mL
- CCL2/MCP-1 Concentration (CCL2/MCP-1; [16]): 4579.5 pg/mL and 4477.1 pg/mL and 4630.2 pg/mL
- CCL2/MCP-1 Concentration, Mean (CCL2/MCP-1; [17]): 4578.9 pg/mL
- CCL2/MCP-1 Concentration (CCL2/MCP-1; [17]): 4528.4 pg/mL and 4731.0 pg/mL and 4477.1 pg/mL
- CCL2/MCP-1 Concentration, Mean (CCL2/MCP-1; [18]): 4630.2 pg/mL
- CCL2/MCP-1 Concentration (CCL2/MCP-1; [18]): 4630.2 pg/mL
- LPS-induced CCL-2 (in words) (CCL2/MCP-1; at as low as 5 μM, LPS 5 ug/mL 24 hrs): significantly reduced
